For 23 compounds, IC50 results are on record in US20150352108A1, “AMINO-PYRIMIDINE COMPOUNDS AS INHIBITORS OF TBK1 AND/OR IKK EPSILON” (Alzheimer's Institute of America, priority 2009, published 2015).

One experiment has as its target T1, IKKε (Homo sapiens, UniProt Q14164).
T1 construct: His-tag; made in house; host or cells: Sf9 insect cells
T1 sequence (Q14164 1-716): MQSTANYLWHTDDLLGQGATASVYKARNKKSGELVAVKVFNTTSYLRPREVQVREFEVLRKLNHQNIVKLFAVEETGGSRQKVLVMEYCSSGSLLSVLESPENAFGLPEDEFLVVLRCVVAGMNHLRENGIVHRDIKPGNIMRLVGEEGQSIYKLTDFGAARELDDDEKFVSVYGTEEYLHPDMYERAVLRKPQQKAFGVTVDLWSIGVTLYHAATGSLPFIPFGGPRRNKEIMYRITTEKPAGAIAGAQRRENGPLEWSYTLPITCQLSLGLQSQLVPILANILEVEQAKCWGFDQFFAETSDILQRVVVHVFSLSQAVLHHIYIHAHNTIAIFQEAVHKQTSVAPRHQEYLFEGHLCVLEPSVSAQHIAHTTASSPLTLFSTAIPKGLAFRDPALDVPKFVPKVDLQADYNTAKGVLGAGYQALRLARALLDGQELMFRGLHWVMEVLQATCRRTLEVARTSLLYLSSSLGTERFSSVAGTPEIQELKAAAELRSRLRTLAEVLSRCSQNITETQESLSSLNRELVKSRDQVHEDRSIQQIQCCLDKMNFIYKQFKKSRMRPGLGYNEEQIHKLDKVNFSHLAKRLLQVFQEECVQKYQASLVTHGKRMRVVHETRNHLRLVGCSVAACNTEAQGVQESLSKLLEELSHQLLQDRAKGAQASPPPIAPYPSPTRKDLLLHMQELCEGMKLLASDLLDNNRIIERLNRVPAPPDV
Put plainly: In-vitro IKKε kinase assay ([γ33]ATP filter-plate). Type of experiment: biochemical. The note with it: text bins; read-out: IC50 for inhibition of the kinase activity of IKKε. The method in brief:
(§1)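 His-tagged Sf9-expressed kinases at 0.1 or 0.02 μg/ml (TBK1) and 0.1 or 0.015 μg/ml (IKKε) for normal and sensitized formats, with myelin basic protein or casein substrate. ATP was at 2×Km (60 μM TBK1, 32 μM IKKε) plus 0.3 μCi [γ33]ATP. Reactions ran 30-45 min, were captured on P-81 filters, and counts were normalized to DMSO.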

A further experiment addresses T2, TBK1 (Homo sapiens, UniProt Q9UHD2).
T2 construct: His-tag; made in house; host or cells: Sf9 insect cells
T2 sequence (Q9UHD2 1-729): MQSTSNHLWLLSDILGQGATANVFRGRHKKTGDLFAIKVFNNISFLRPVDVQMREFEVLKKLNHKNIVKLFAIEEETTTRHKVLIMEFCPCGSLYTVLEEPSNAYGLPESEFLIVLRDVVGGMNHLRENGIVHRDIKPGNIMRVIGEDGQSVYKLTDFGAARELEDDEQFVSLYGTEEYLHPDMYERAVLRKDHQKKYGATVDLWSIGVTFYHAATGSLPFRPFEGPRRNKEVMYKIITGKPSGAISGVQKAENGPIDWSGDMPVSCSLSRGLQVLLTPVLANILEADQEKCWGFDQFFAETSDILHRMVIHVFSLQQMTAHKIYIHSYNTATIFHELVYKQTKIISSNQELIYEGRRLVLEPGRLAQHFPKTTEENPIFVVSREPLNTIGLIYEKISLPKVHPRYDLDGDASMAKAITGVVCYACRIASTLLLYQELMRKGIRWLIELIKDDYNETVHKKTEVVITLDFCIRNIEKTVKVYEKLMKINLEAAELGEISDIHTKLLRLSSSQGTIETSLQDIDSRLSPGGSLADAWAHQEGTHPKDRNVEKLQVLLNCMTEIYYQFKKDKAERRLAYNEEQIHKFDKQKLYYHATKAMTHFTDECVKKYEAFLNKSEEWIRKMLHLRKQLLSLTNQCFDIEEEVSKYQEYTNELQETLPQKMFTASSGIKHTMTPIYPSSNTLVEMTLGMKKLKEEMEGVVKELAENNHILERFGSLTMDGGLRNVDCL
The experiment is described as follows: In-vitro TBK1 kinase assay ([γ33]ATP filter-plate). Type of experiment: biochemical. The note with it: text bins; read-out: IC50 for inhibition of the kinase activity of TBK1. The method in brief: as §1

Some results are limits rather than exact numbers.

On to `CN1CCN(c2ccc(Nc3nccc(-c4ccc(OC5CCN(C(=O)CO)C5)c(C#N)c4)n3)cc2)CC1` (stereo not shown) [Example 254, 2-{[1-(hydroxyacetyl)pyrrolidin-3-yl]oxy}-5-(2-{[4-(4-methylpiperazin-1-yl)phenyl]amino}pyrimidin-4-yl)benzonitrile], for which the IC50 at IKKε is 5 to 50 nM; at TBK1, under 10 nM.

For the compound `CS(=O)(=O)N1CCC(Oc2ccc(-c3ccnc(Nc4ccc(N5CCOCC5)cc4)n3)cc2C#N)C1` (stereo not shown) [Example 257, 2-{[1-(methylsulfonyl)pyrreolidin-3-yl]oxy}-5-(2-{[4-(morpholin-4-yl)phenyl]amino}pyrimidin-4-yl)benzonitrile], the IC50 lay in the range of 5 to 50 nM on IKKε and 10 to 100 nM at TBK1.

For the compound `COc1cc(Nc2nccc(-c3ccc(OC)c(C#N)c3)n2)cc(OC2CCN(C)CC2)c1` [Example 259, 2-Methoxy-5-[2-({3-methoxy-5-[(1-methylpiperidin-4-yl)oxy]phenyl}amino)pyrimidin-4-yl]benzonitrile], the half-maximal inhibitory concentration (IC50) lay within 5 to 50 nM at IKKε and 10 to 100 nM at TBK1.

For `COc1ccc(-c2ccnc(Nc3cccc(Cl)c3)n2)cc1C#N` [Example 260, 5-{2-[(3-Chlorophenyl)amino]pyrimidin-4-yl}-2-methoxybenzonitrile], the IC50 at IKKε lay within 50 to 500 nM; on TBK1, 10 to 100 nM.

`N#Cc1cc(-c2ccnc(Nc3ccc(N4CCOCC4)cc3)n2)ccc1OC1CCOC1` (stereo not shown) [Example 261, 5-(2-{[4-(Morpholin-4-yl)phenyl]amino}pyrimidin-4-yl)-2-(tetrahydrofuran-3-yloxy)benzonitrile]: the figures for the IC50 on IKKε and at TBK1 were under 5 nM and under 10 nM, respectively.

Take `COc1ccc(-c2ccnc(Nc3ccc(N4CCOCC4)cc3)n2)cc1C#N` [Example 266, 2-Methoxy-5-(2-{[4-(morpholin-4-yl)phenyl]amino}pyrimidin-4-yl)benzonitrile]: the IC50 on IKKε is 5 to 50 nM; at TBK1, under 10 nM.

Consider `N#Cc1cc(-c2ccnc(Nc3ccc(N4CCOCC4)cc3)n2)ccc1OC1CCN(C(=O)CN)CC1` [Example 268, 2-[(1-Glycylpiperidin-4-yl)oxy]-5-(2-{[4-(morpholin-4-yl)phenyl]amino}pyrimidin-4-yl)benzonitrile], for which the IC50 was 5 to 50 nM on IKKε and under 10 nM on TBK1.

With `Cc1ccc(-c2ccnc(Nc3ccc(N4CCOCC4)cc3)n2)cc1C#N` [Example 269, 2-Methyl-5-(2-{[4-(morpholin-4-yl)phenyl]amino}pyrimidin-4-yl)benzonitrile], the concentration for half-maximal inhibition (IC50) on IKKε is 5 to 50 nM; at TBK1, under 10 nM.

For `COc1cc(Nc2nccc(-c3ccc(OC(C)C)c(C#N)c3)n2)cc(OC)c1` [Example 272, 5-{2-[(3,5-Dimethoxyphenyl)amino]pyrimidin-4-yl}-2-(propan-2-yloxy)benzonitrile], the half-inhibitory concentration (IC50) on IKKε lay in the range of 5 to 50 nM; at TBK1 it was 10 to 100 nM.

As to `COc1ccc(-c2ccnc(Nc3ccc(OCCN4CCOCC4)c(OC)c3)n2)cc1C#N` [Example 273, 2-Methoxy-5-[2-({3-methoxy-4-[2-(morpholin-4-yl)ethoxy]phenyl}amino)pyrimidin-4-yl]benzonitrile], the IC50 was 5 to 50 nM on IKKε and 10 to 100 nM on TBK1.

As to `COc1cc(Nc2nccc(-c3ccc(OC4CCOCC4)c(C#N)c3)n2)ccc1C(=O)NCc1cccnc1` [Example 275, 4-({4-[3-cyano-4-(tetrahydro-2H-pyran-4-yloxy)phenyl]pyrimidin-2-yl}amino)-2-methoxy-N-(pyridin-3-ylmethyl)benzamide], the half-maximal inhibitory concentration (IC50) on IKKε was under 5 nM; on TBK1, under 10 nM.

With `CCOc1cccc(Nc2nccc(-c3cccc(C#N)c3)n2)c1` [Example 276, 3-{2-[(3-Ethoxyphenyl)amino]pyrimidin-4-yl}benzonitrile], the IC50 on IKKε was in the range of 50 to 500 nM; at TBK1, 100 to 500 nM.

In the case of `COCC(=O)Nc1cc(Nc2nccc(-c3ccc(OC)c(C#N)c3)n2)cc(OC)c1` [Example 278, N-(3-{[4-(3-Cyano-4-methoxyphenyl)pyrimidin-2-yl]amino}-5-methoxyphenyl)-2-methoxyacetamide], the values for the IC50 at IKKε and on TBK1 were 5 to 50 nM and 10 to 100 nM, respectively.

As for `COc1cc(NC(=O)N[C@H]2CC[C@H](O)CC2)cc(Nc2nccc(-c3ccc(OC)c(C#N)c3)n2)c1` [Example 280, 1-(3-{[4-(3-Cyano-4-methoxyphenyl)pyrimidin-2-yl]amino}-5-methoxyphenyl)-3-(trans-4-hydroxycyclohexyl) urea], the IC50 lay within 5 to 50 nM at IKKε and 10 to 100 nM at TBK1.

Take `COc1ccc(-c2ccnc(Nc3ccc(S(=O)(=O)NCCO)c(OC)c3)n2)cc1C#N` [Example 281, 4-{[4-(3-Cyano-4-methoxyphenyl)pyrimidin-2-yl]amino}-N-(2-hydroxyethyl)-2-methoxybenzene-sulfonamide]: the half-inhibitory concentration (IC50) was in the range of 5 to 50 nM at IKKε and 10 to 100 nM at TBK1.

For `CN1CCN(S(=O)(=O)c2ccc(Nc3nccc(-c4ccc(OC5CCOCC5)c(C#N)c4)n3)cc2)CC1` [Example 284, 5-[2-({4-[(4-methylpiperazin-1-yl)sulfonyl]phenyl}amino)pyrimidin-4-yl]-2-(tetrahydro-2H-pyran-4-yloxy)benzonitrile], the 50% inhibitory concentration (IC50) was 5 to 50 nM on IKKε and under 10 nM on TBK1.

For `N#Cc1cc(-c2ccnc(Nc3ccc(N4CCOCC4)cc3)n2)ccc1NN1CCOCC1` [Example 285, 2-(morpholin-4-ylamino)-5-(2-{[4-(morpholin-4-yl)phenyl]amino}pyrimidin-4-yl)benzonitrile], the half-maximal inhibitory concentration (IC50) at IKKε was 5 to 50 nM; on TBK1 it was under 10 nM.

`CN(C)c1ccc(Nc2nccc(-c3cccc(C#N)c3)n2)cc1` [Example 286, 3-(2-{[4-(Dimethylamino)phenyl]amino}pyrimidin-4-yl)benzonitrile]: the IC50 at IKKε is 50 to 500 nM; on TBK1 it was 100 to 500 nM.

In the case of `COc1cc(Nc2nccc(-c3ccc(OC4CCN(C(=O)[C@H](C)O)CC4)c(C#N)c3)n2)ccc1C(=O)NCCN(C)C` [Example 287, 4-({4-[3-cyano-4-({1-[(2S)-2-hydroxypropanoyl]piperidin-4-yl}oxy)phenyl]pyrimidin-2-yl}amino)-N-[2-(dimethylamino)ethyl]-2-methoxybenzamide], the IC50 on IKKε is under 5 nM; at TBK1, under 10 nM.

As for `COc1ccc(-c2ccnc(Nc3ccc(OC4CCN(C)CC4)cc3)n2)cc1C#N` [Example 288, 2-Methoxy-5-[2-({4-[(1-methylpiperidin-4-yl)oxy]phenyl}amino)pyrimidin-4-yl]benzonitrile], the IC50 is 5 to 50 nM on IKKε and under 10 nM at TBK1.

In the case of `CN(C)CCOc1ccc(Nc2nccc(-c3cccc(C#N)c3)n2)cc1` [Example 291, 3-[2-({4-[2-(Dimethylamino)ethoxy]phenyl}amino)pyrimidin-4-yl]benzonitrile], the IC50 on IKKε was 50 to 500 nM; at TBK1, 10 to 100 nM.

`COc1cc(NC(=O)N2CC[C@H](O)C2)cc(Nc2nccc(-c3ccc(OC)c(C#N)c3)n2)c1` [compound 294, (3S)-N-(3-{[4-(3-Cyano-4-methoxyphenyl)pyrimidin-2-yl]amino}-5-methoxyphenyl)-3-hydroxypyrrolidine-1-carboxamide]: the IC50 on IKKε lay in the range of 5 to 50 nM; on TBK1 it was 10 to 100 nM.

`COc1cc(NC(=O)NCCO)cc(Nc2nccc(-c3ccc(OC)c(C#N)c3)n2)c1` [compound 295, 1-(3-{[4-(3-Cyano-4-methoxyphenyl)pyrimidin-2-yl]amino}-5-methoxyphenyl)-3-(2-hydroxyethyl)urea]: the IC50 at IKKε lay within 5 to 50 nM; on TBK1, 10 to 100 nM.
